Experimental findings from article PMC10852989, “Combining cisplatin and a STING agonist into one molecule for metalloimmunotherapy of cancer” (National Science Review, 2024) are described below.

Data set [1] relates to BxPC3 cells. Description: 72 h MTT cytotoxicity, BxPC3. It is filed as cell-based, human. The protocol:
(§1) Cytotoxicity. Tumor cells were cultured overnight after inoculation in RPMI-1640 medium or DMEM supplemented with 10% FBS. All cultures were maintained in an incubator in a highly humidified atmosphere of 95% air with 5% CO2 at 37 °C. Growth inhibition was measured with an MTT assay. Briefly, 2800–7000 cells per well in culture medium (100 μL) were plated in 96-well plates (Corning). The cells were treated in triplicate with different concentrations of complexes at 37 ℃ for 72 h. Stock solutions of CDDP and oxoplatin were prepared in PBS, while stock solutions of conjugates I and II and the ligand MSA-2 were prepared in DMSO. The stock solutions were diluted in complete medium (DMSO < 0.5%). An aliquot of MTT solution (40 μL, 2.5 mg·mL^–1) in PBS buffer was added to each well and incubated for 4 h. The supernatant was removed and DMSO (150 μL) was added to solubilize the formazan crystals. The amount of formazan was determined using a microplate reader at 570 nm after the plates were shaken for 30 min. The optical density (OD) was used to calculate the percentage of viable cells relative to untreated control values. Background readings for MTT incubated in cell-free medium were subtracted from each value before calculation. […] The mean IC50 values were calculated using data from three replicates.

In data set [2] the test system is Caov3 cells. Description: 72 h MTT cytotoxicity, Caov3. Format: cell-based, human. The protocol: as §1
The nature of data set [3]: H&E histology of major organs after treatment. It is filed as in vivo, mouse. As to conditions: C57BL/6 mice after treatment, 10.0 μmol/kg. Here is the method: Hematoxylin and eosin staining. Tissue samples were subjected to histopathological examination using hematoxylin and eosin (H&E) staining. Mouse organs (heart, liver, spleen, lungs and kidneys) were collected in 4% paraformaldehyde for proper fixation and then embedded in paraffin using a tissue embedding machine. Sections were prepared in an orderly manner by dewaxing, dehydration, and H&E staining. The tissue morphology was observed under a fluorescence microscope (Olympus BX41, Japan).

Data set [4] has as its system Pan02 cells. The data set can be described thus: 72 h MTT cytotoxicity, Pan02. It is filed as cell-based, mouse. The protocol:
as §1

A short description of data set [5]: reduction by ascorbic acid (AsA) followed by 1H-/195Pt-NMR. It is filed as physicochemical. The conditions noted are these: 20 mM, 8 equiv. AsA, 5:1 d6-DMSO:D2O, 37 °C, dark. Here is the method: Reduction of I and II. Samples were prepared by reacting I or II (20 mM) with 8 equiv. AsA in 5:1 d6-DMSO:D2O solutions. The time course of the reaction was monitored by ^1H-NMR and ^195Pt-NMR after incubation of the samples were incubated at 37 °C for 0, 3, 6, 12, 24, 36, 48, 60, 72, 84, 96, or 120 h in the dark.

Data set [6] in a line: octanol-water partition coefficient, shake-flask, ICP-MS. As to conditions: n-octanol / phosphate buffer 10 mM pH 7.4, room temperature. Format: physicochemical. The protocol: Lipid-water partition coefficient. The shake-flask method was used to measure the partition coefficients of CDDP, I and II. Briefly, a mixture containing equal volumes of n-octanol and phosphate buffer (10 mM, pH 7.4) was shaken on a mechanical shaker at room temperature for 24 h. Complexes (10 mM) in phosphate buffer (presaturated with n-octanol) were mixed with an equal volume of n-octanol (presaturated with phosphate buffer), and the mixture was shaken for 24 h at room temperature. Centrifugation was carried out at 2500 rpm for 30 min to separate the two phases. The aqueous layer was carefully separated, and the Pt content in the initial and final aqueous phases was analyzed by inductively coupled plasma mass spectrometry (ICP-MS). The log PO/W was measured using the following equation: log PO/W = log [(Ptinitial ‒ Ptfinal)/Ptfinal].

Data set [7] relates to STING pathway in BMDCs. The data set can be described thus: IFN-β and IL-6 ELISA in supernatants of BMDCs treated with complexes. Format: cell-based, mouse. The protocol: ELISA. Bone marrow-derived dendritic cells (BMDCs) were prepared according to the following method. Briefly, femurs and tibias were removed from 4-6 week-old C57BL/6 mice, and the bone marrow cells were isolated. The bone marrow cells were incubated in T cell medium [RPMI-1640 medium (with GlutaMAX), supplemented with 10% FBS, 1% HEPES, 1% NEAA, 1% sodium pyruvate, and 0.1% βME] containing 20 ng/mL GM-CSF for 6 days after erythrocyte lysis, during which time half of the medium was replaced with fresh T cell medium once and the cytokines were supplemented. Then, the BMDCs were harvested on day 7 for further study.
BMDCs were cultured with 50% CM plus 50% fresh medium for 18 h. In addition, BMDCs were cultured with fresh medium containing different complexes or mixtures (15 μM CDDP and I, a mixture of I and 8 equiv. AsA, and equal AsA). Then, all the BMDC supernatant was collected and centrifuged for subsequent cytokine analysis using ELISA kits, which were performed according to the manufacturer’s instructions.
A general note: An ELISA detects its analyte on a solid surface through an enzyme-linked reagent.

Data set [8] deals with Pan02 tumors. Description: in vivo antitumor activity, C57BL/6 mice bearing Pan02 tumors. Further details: species or system mouse. The protocol: In vivo antitumor activity. Female C57BL/6 mice (6–8 weeks old) were subcutaneously implanted with pan02 cells (2 × 10^6) in the right flank. Once the tumor volume reached approximately 60 mm^3, the mice were assigned to 4 groups at random (n = 5–8) and received treatment with PBS, CDDP (10.0 μmol/kg), I (10.0 μmol/kg), or a mixture of CDDP (10.0 μmol/kg) and MSA-2 (10.0 μmol/kg). The mice received 9 treatments. Changes in body weight and tumor volume were recorded. All the experimental procedures utilizing mice were performed in accordance with the Guidelines for Care and Use of Laboratory Animals of Nanjing University and experiments were approved by the Institutional Animal Care and Use Committee of Nanjing University (IACUC-2101001, SL-019-00).

Data set [9] has as its system Pan02 tumor tissue immune cells. The data set can be described thus: flow cytometric analysis of immune cells in Pan02 tumor tissue. Format: in vivo, mouse. As to conditions: Pan02 tumors; comparable to CDDP and CDDP + MSA-2 groups. Here is the method:
Flow cytometric analysis. To analyze the levels of immune cells in the tumor microenvironment, mice were sacrificed six days after the final treatment. The obtained tumors were cut into pieces and digested in T cell medium. Single-cell suspensions were obtained after filtration through nylon mesh and incubated with various antibodies. FACS tests were carried out on a flow cytometer, and the results were analyzed with NovaExpress. The following monoclonal antibodies (mAbs) were used for flow cytometry: anti-CD3-APC (17A2), anti-CD4-AF700 (RM4-5), anti-CD8-PE (53-6.7), anti-NK1.1-PE/Cy7 (PK136), anti-PD-1-FITC (29F. 1A12), anti-CD69-PE/Cy5 (H1.2F3).

The mark [10] stands for this setting: pretreated with 8 equiv. AsA for 24 h, compared with no pretreatment.

For the compound `COc1cc2cc(C(=O)CCC(=O)[O][Pt]([NH2])([NH2])([OH])([Cl])[Cl])sc2cc1OC` [conjugate I], in data set [1], the midpoint of inhibition, the IC50, lay at 20 ± 10 nM. The IC50 in [2] was 700 ± 100 nM. Besides, in [3], the “histological findings in major organs” value is “only mild vacuolar degeneration in the liver and aggregates containing only a few inflammatory cells in the lungs”. The IC50 in data set [4] stood at 50 ± 10 nM. In addition, the “time at which reduction by AsA finished” value in [5] is recorded as 24 h. In addition, in data set [6], the “octanol-water partition coefficient (logPo/w)” value was 0.9. In [7] (18 h, ELISA, 15 μM), the “IFN-β secretion by BMDCs” value is “minimal” and the “IL-6 secretion by BMDCs” value was “minimal”. Further, in data set [7] (setting [10]), the “IFN-β secretion by BMDCs, compound pretreated with AsA” value is “significantly enhanced” and the “IL-6 secretion by BMDCs, compound pretreated with AsA” value was “significantly enhanced”. This compound also yielded a tumor volume in [8] (C57BL/6 mice, Pan02 tumors, 10.0 μmol/kg every 2 days for 16 days, intravenous) of 106.3 ± 6.2 mm^3. Further, in data set [8] (monitored another 6 days), the “tumor growth after cessation of treatment” value is listed as “substantially suppressed”. In data set [9], the “infiltration of CD8+ and CD4+ T cells” value is listed as “slightly increased”.

The IC50 is the concentration that inhibits the measured activity by half.
